Data set [1] concerns HCT116 cells. Nature of the data set: EdU incorporation assay (DNA synthesis). In kind it is cell-based, human. On the procedure:
(§1) 96-well plates were seeded at 3000 cells per well and exposed to different treatments. 50 μM EdU labeling medium (RiboBio) was added and incubated for 2 h at 37 °C. The cells were then fixed with 4% […] for 10 min. After being washed with PBS, cells were stained with anti-EdU working solution for 30 min and stained with Hoechst33342 for 10 min. Cells were observed using fluorescent microscopy. The percentage of EdU-positive cells was calculated from five random fields in three wells.

In the next data set the test system is LoVo cells. Nature of the data set: EdU incorporation assay (DNA synthesis). Format: cell-based, human. On the procedure: as §1
In the next data set the test system is NCM460 cells. Nature of the data set: EdU incorporation assay (DNA synthesis). In kind it is cell-based, human. The protocol: as §1
For data set [2], the system named is HCT116 tumors. The experiment in a line: HCT116 xenograft therapeutic evaluation. As to conditions: CPT 5 mg/kg iv twice a week. On the procedure:
Female BALB/c nude mice (4–6 weeks with weights of 18–22 g) were obtained from Shanghai Super-B&K Laboratory Animal Corp. Ltd. (Shanghai, China) and kept in specific pathogen free, temperature-controlled isolation. All animal studies were conducted in accordance with the principles and procedures outlined in the Guide for the Care and Use of Laboratory Animals and were approved by Ethics committee. To generate the HCT116 and U87 tumor model, about 1 × 10^6 tumor cells were subcutaneously injected into the right front flank of 4 weeks old athymic nude mice.
The HCT116 tumor-bearing mice were randomly divided into 4 groups (n = 7 for each group). […] The tumors were measured by a vernier caliper twice a week. The weights of the mice were recorded. Then, the mice were sacrificed at the 28th day. The tumors were dissected and weighted. The tumor volumes were calculated to evaluate the therapeutic efficacy.

The subject of data set [3] is patient-derived CRC xenograft. Nature of the data set: CRC patient-derived xenograft (PDX) therapeutic evaluation. Format: in vivo, human xenograft in mice. The following applies: HE staining. A general note: A xenograft is tissue or cells of one species grown in another, often human tumour cells in immunodeficient mice.
Data set [4] relates to Cleaved caspase 3 in colon tissues. Nature of the data set: Cleaved caspase 3 immunofluorescence in colon tissues (GI toxicity). Format: in vivo, mouse. As to conditions: PDX mice, CPT eq. 3 mg/kg iv twice a week, colon tissue.
The test system of a further data set is intestine and liver. Nature of the data set: Organ histology (Supplementary Fig. 6). Format: in vivo, mouse.
Data set [5] has as its system HCT116 cells. The experiment in a line: Endocytosis inhibition assay (FITC-P-LPK internalization). In kind it is cell-based, human. As to conditions: 10 µM, 30 min pre-treatment, then FITC-P-LPK 2 h; NC vs CPZ p = 0.0001. The protocol:
Fig. 6 P-LPK bound to SLC1A5 and entered CRC cells through endocytosis. a, b Western blotting analysis of SLC1A5 in NCM460, HCT116, LoVo, SW480, HT29 and Colo320HSR cells. After knocking down SLC1A5 in HCT116 and HT29, the binding intensity of FITC-P-LPK to cells was observed by confocal microscopy. Bar, 10 μm. c, d Effects of different endocytosis inhibitors on the internalization of FITC-P-LPK. HCT116 cells were pre-treated with 10 µM chlorpromazine, 50 μM methyl-β-cyclodextrin, 20 µM Amiloride hydrochloride for 30 min at 37 °C. Subsequently, the cells were incubated with FITC-P-LPK for 2 h. Then the fluorescence intensity was observed by confocal microscopy and detected using a multi-well plate reader (n = 5, means ± SD, NC vs CPZ, p = 0.0001; NC vs MβCD, p = 0.9069; NC vs EIPA, p = 0.9812) (****p < 0.0001). Bar, 10 μm. e The competition experiment with SLC1A5 substrates glutamine. FITC-P-LPK was incubated with increasing concentrations (0–32 mM) of glutamine in HCT116 cells at 37 °C for 2 h. The fluorescence intensity was measured in a multi-well plate reader (n = 5, means ± SD).
Chlorpromazine (CPZ), amiloride (AMI), and methyl-β-cyclodextrin (MCD) were purchased from MedChem Express. […] Then the fluorescence intensity was detected using a multi-well plate reader (BioTek synergy4) and observed by confocal laser scanning microscopy.

The subject of data set [6] is HCT116 cells. Nature of the data set: FITC-peptide binding, confocal fluorescence intensity. As to conditions: FITC labeled, immunofluorescence. In kind it is cell-based, human.
Protocol: NCM460, Colo320HSR, HCT116, LoVo, HT29 and SW480 cells were respectively incubated with FITC-labeled P-LPK (Random peptide P-CON) peptides for 2 h at 37 °C and washed with PBS for three times. The cells were fixed with 4% paraformaldehyde for 30 min at room temperature, and then 4,6-diamidino-2-phenylindole (DAPI) was used for nucleic acid stain. A laser scanning confocal microscope was used to visualize the cells. The fluorescence intensity was analyzed using the Image-Pro Plus 6.0 software. For cell localization experiment, 20 μg/ml rhodamine-labeled peptides were incubated with NCM460 and HCT116 for 2 h, and then washed with PBS for three times. After that, the cell membrane was stained with a blue cell membrane probe (Thermo Fisher Scientific, Cat. No. W11263). The binding of Rhodamine-P-LPK to cells and their localization in cells was observed under a confocal microscope.
In data set [7] the target is T1, recombinant SLC1A5 (Homo sapiens, UniProt Q15758).
T1 sequence (Q15758 1-541): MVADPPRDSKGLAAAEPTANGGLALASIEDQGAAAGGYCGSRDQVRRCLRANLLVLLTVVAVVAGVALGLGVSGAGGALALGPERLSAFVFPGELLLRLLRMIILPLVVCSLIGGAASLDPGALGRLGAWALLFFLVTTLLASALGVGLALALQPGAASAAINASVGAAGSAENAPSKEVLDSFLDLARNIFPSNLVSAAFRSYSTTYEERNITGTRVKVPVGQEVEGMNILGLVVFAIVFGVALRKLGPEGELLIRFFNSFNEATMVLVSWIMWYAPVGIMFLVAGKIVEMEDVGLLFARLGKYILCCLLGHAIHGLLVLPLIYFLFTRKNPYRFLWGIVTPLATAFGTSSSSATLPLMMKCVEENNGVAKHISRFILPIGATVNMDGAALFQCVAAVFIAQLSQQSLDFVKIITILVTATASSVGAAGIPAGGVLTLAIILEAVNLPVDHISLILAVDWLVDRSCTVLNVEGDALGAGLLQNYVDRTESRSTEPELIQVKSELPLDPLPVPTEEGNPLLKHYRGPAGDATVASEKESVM
The experiment in a line: Surface plasmon resonance, Biacore T200. Format: binding. As to conditions: Biacore T200, CM5 chip, peptide 25–400 μM, 1×PBS with 5% DMSO, 0.05% Tween 20, pH 7.4; read-out: KD (SPR). On the procedure: A surface plasmon resonance-based method using the Biacore T200 platform was developed to detect the binding of peptide (25–400 μM) to recombinant SLC1A5. The sensor chip CM5, 1 × PBS (2 mM KH2PO4, 10 mM Na2HPO4, 137 mM NaCl, 2.7 mM KCl) with 5% DMSO, 0.05% Tween 20 buffer (pH 7.4), and the amine coupling kit (which includes EDC, NHS, and ethanolamine reagents) were all obtained from GE Healthcare. The sensor chip CM5 was activated using EDC and NHS reagents, according to the standard procedure for amine coupling. 20 μg/ml SLC1A5 (about 10 μg proteins in 0.5 ml 10 mM Sodium Acetate buffer) was then covalently immobilized to the chip surface CM5 under 10 mM Sodium Acetate (pH 4.5) buffer. The resulting differences in resonance units (RU) were about 4000 RU. After de-activation by ethanolamine and washing with 1×PBS with 5% DMSO, 0.05% Tween 20 buffer (pH 7.4), the prepared sensor chip was applied to Biacore T200 for the binding assay. 1×PBS with 5% DMSO, 0.05% Tween 20 buffer (pH 7.4) was used as running buffer. A one-minute injection of a solution of 10 mM Glycine-HCl, pH 3.0 was used to regenerate the chip surface.
(In SPR one partner is held on a chip, and binding of the other changes the refractive index at the surface.)

Data set [8] in a line: in vivo. Also on record: species or system human xenograft in BALB/c nude mice. As to conditions: female, BALB/c nude, mouse, iv, 3.7 MBq, total radioactivity, T/NT ratio. The protocol:
(§2) To obtain ^68Ga, 0.1 M HCl was used to elute a ^68Ge-^68Ga generator. The radioactivity of eluate was monitored. The radioactive elution peak was collected for ^68Ga radiolabeling experiment. An aliquot of 150 μg of compound P-LPK or P-CON was put in a glass vial and dissolved with 0.2 M sodium acetate/acetic acid buffer, pH 3.8. Then ^68GaCl3 tracer was added, and the pH was adjusted to fall in a range of 3.5~4 with 0.1 M NaOH. The solution was stored at room temperature for 0.5 h. The radiochemical purities of ^68Ga-P-LPK and ^68Ga-P-CON were measured with thin-layer chromatography (TLC), using silica gel-impregnated glass fiber stripe (iTLC SG) and 0.25 M sodium citrate/citric acid buffer as mobile phase. ^68GaCl3 was used as a control.
(§3) Each U87 and HCT116 tumor-bearing mouse was injected in a tail vein with 3.7 MBq (100 μCi, 0.1 nmol in 100 μl) of ^68Ga-P-LPK or ^68Ga-P-CON under isoflurane anesthesia (n = 4 per group). For static PET, 5-min scans were acquired at 30 min, 60 min, and 120 min after injection. The maximum radioactivity concentrations within a tumor or an organ were obtained from mean pixel values within the multiple regions of interest (ROI) volume.

Data set [9] is described as follows: in vivo. Also on record: species or system human xenograft in BALB/c nude mice. The following applies: female, BALB/c nude, mouse, iv, 3.7 MBq, total radioactivity, T/NT ratio. On the procedure:
as §2, §3
(§4) For the blocking experiment, unlabeled P-LPK was first injected into mice (n = 3 per group), and 3.7 MBq ^68Ga-P-LPK was then injected. Static PET images were acquired at 30 min, 60 min and 120 min post-injection.
The source holds these as a separate data set.

For data set [10], the system named is HCT116 tumors. The experiment in a line: in vivo. Also on record: species or system human xenograft in BALB/c nude mice. As to conditions: for T/NT ratio, unblock: female, BALB/c nude, mouse, iv, 3.7 MBq. On the procedure:
as §2, §3, §4

For data set [11], the target named is T2, recombinant SLC1A5 (UniProt Q15758 1-541).
T2 construct: glutamine transporter solute carrier 1 family member 5 (SLC1A5, ASCT2), recombinant protein; additional methods are in the Supplementary Material; also called solute carrier 1 family member 5; ASCT2
T2 sequence: T1 sequence (Q15758 1-541)
Nature of the data set: SPR; Biacore T200; SLC1A5 covalently immobilised by amine coupling on a CM5 chip (about 4000 RU); peptide 25-400 uM as analyte; running buffer 1x PBS with 5% DMSO, 0.05% Tween 20, pH 7.4. As to conditions: both partners purified.

[12] abbreviates: relative to DMSO = 1, replicate 1.
Setting [13] is: relative to DMSO = 1, replicate 2.
[14] abbreviates: relative to DMSO = 1, replicate 3.

“Also recorded” adds a separate entry of the source. Like-named read-outs stand apart in the source and are kept apart here. No end group written: not given here.

For the molecule `CC[C@@]1(O)C(=O)OCc2c1cc1n(c2=O)Cc2cc3ccccc3nc2-1` [CPT, camptothecin], the “Proportion of cells in the DNA synthesis state” value in the data set with HCT116 cells [1] (setting [12]) worked out at 1.278; with HCT116 cells [1] (setting [13]), 0.9932; in the data set on HCT116 cells [1] (setting [14]) it was 0.9243; in the data set with LoVo cells (setting [12]), 0.9805; with LoVo cells (setting [13]) it was 0.8341; in the data set on LoVo cells (setting [14]), 1.054. The “Proportion of cells in the DNA synthesis state” value in the data set with NCM460 cells (setting [12]) was 1.185; in the data set with NCM460 cells (setting [13]), 1.136; in the data set on NCM460 cells (setting [14]), 0.9381. The Mortality during treatment entry in the data set with HCT116 tumors [2] is reported as “More than half of the mice; also recorded: more than half of mice treated with CPT died of side effects”. Besides, the “Tumor histology (cancer cells in tumor tissue)” value in data set [3] is on record as “almost maintained its original morphological features”. The “Quantification of Cleaved caspase 3” value is recorded as 24 in data set [4] (CPT vs P-LPK-CPT p = 0.0051, replicate 1); 11 in data set [4] (replicate 2); 14 in data set [4] (replicate 3); 10 in data set [4] (replicate 4); 13 in data set [4] (replicate 5). Further, the “Damage to intestine and liver” value in the data set on intestine and liver was “significantly increased”. The “Antitumor activity / cytotoxicity” value is reported as “no obvious toxicity to CRC cells” in the data set on CRC cells (10 nM (CPT equivalent)) and “obvious cytotoxicity effects” in the data set with CRC cells (100 nM).

Regarding `CN(C)CCCN1c2ccccc2Sc2ccc(Cl)cc21` [CPZ, chlorpromazine], the “Effect on cellular internalization of FITC-P-LPK” value with HCT116 cells [5] is reported as “exhibited the highest inhibitory effect; also recorded: remarkably decreased the cellular internalization of FITC-P-LPK”.

Take APATVSSDMSLA [FITC-P-MUT]: the “Fluorescence intensity of mutant peptide bound to cells” value with HCT116 cells [6] is reported as “significantly reduced”.

On to DLPSRTSALASG [P-CON], for which the equilibrium dissociation constant (Kd) on recombinant SLC1A5 [7] turned out to be 126 µM.

Take “LPKTVSSDMSLN [68Ga-P-LPK, metal not drawn]”: the tissue to tissue ratio at 0.5 h in “in vivo [8]” is 1.68; in the data set “in vivo [9]” it was 2.85; in the data set “in vivo [9]” (block), 0.41; in the data set “in vivo [9]” (unblock) it was 0.82. Further, the tissue to tissue ratio at 1 h worked out at 1.47 in the data set “in vivo [8]”, 2.38 in the data set “in vivo [9]”, 1.17 in the data set “in vivo [9]” (block) and 2.91 in the data set “in vivo [9]” (unblock). The tissue to tissue ratio at 2 h in the data set “in vivo [8]” came out at 1.28; in “in vivo [9]”, 1.87; in the data set “in vivo [9]” (block), 0.79; in the data set “in vivo [9]” (unblock), 2.31. Also, the “T/NT ratios after blocking” value in the data set with HCT116 tumors [10] is “significantly reduced”. The “T/NT ratios vs 68Ga-P-CON” value with HCT116 tumors [10] was “significantly increased”. The “Tumor binding after pre-injection with unlabeled P-LPK” value with HCT116 tumors [10] was “dramatically attenuated”. In addition, the “T/NT ratio, unblock” value worked out at 0.51 with HCT116 tumors [10] (0.5 h) and 2.47 in the data set on HCT116 tumors [10] (1 h).

B1: P-LPK peptide (peptide)
peptide: LPKTVSSDMSLN
notes: twelve-residue peptide selected from an M13 phage-display peptide library on CRC cells; Unlabelled peptide, analyte in the SPR experiment; source: synthetic peptide
For the molecule B1, in the data set with recombinant SLC1A5 [11], the Kd was approximately 1.19 µM.

For orientation: Kd means a measure of binding affinity in units of concentration.

The record behind these values is paper PMC9663589, “Anti-tumor effects of P-LPK-CPT, a peptide-camptothecin conjugate, in colorectal cancer” (Communications Biology, 2022).
